These results are taken from ChEMBL document CHEMBL1799924, “Synthesis and activities of naphthalimide azoles as a new type of antibacterial and antifungal agents” (2011).

One assay relates to Escherichia coli. Briefly: Antibacterial activity against Escherichia coli JM 109 by microbroth dilution method. It is filed as functional. (Dilution methods test growth across graded concentrations, often in twofold steps.)
For the next assay, the system named is Candida albicans. Briefly: Antifungal activity against Candida albicans ATCC 76615 by microbroth dilution method. It is filed as functional.
The subject of the next assay is Bacillus. Briefly: Antibacterial activity against Bacillus proteus by microbroth dilution method. Format: functional.
The subject of the next assay is Micrococcus luteus. Briefly: Antibacterial activity against Micrococcus luteus by microbroth dilution method. It is filed as functional.
The test system of another assay is Salmonella typhi. Briefly: Antibacterial activity against Bacillus typhi by microbroth dilution method. Format: functional, Salmonella enterica subsp. enterica serovar Typhi. The conditions noted are these: Salmonella enterica.
The next assay has as its system Candida. Briefly: Antifungal activity against Candida mycoderma by microbroth dilution method. Format: functional.
In another assay the test system is Bacillus subtilis. Briefly: Antibacterial activity against Bacillus subtilis ATCC 6633 by microbroth dilution method. Format: functional.
The test system of a further assay is Pseudomonas aeruginosa. Briefly: Antibacterial activity against Pseudomonas aeruginosa by microbroth dilution method. Format: functional.
Assay [1] deals with Staphylococcus aureus. Briefly: Antibacterial activity against Staphylococcus aureus ATCC 25923 by microbroth dilution method. Format: functional.
Assay [2] has as its system Staphylococcus aureus. Briefly: Antibacterial activity against methicillin-resistant Staphylococcus aureus N 315 by microbroth dilution method. Format: functional.

Converted amounts (≈) assume the structure as drawn.

What is called MIC is the least concentration at which growth counts as inhibited. Higher therefore signals a less susceptible organism.

`O=C1c2cccc3c(Br)ccc(c23)C(=O)N1CCCCn1cncn1`: the MIC in the assay on Escherichia coli was greater than 512 µg/mL; in the assay on Candida albicans it was greater than 512 µg/mL; in the assay with Bacillus, 256 µg/mL (≈ 641 µM); against Micrococcus luteus, greater than 512 µg/mL; with Salmonella typhi it was greater than 512 µg/mL; in the assay on Candida, greater than 512 µg/mL. The MIC against Bacillus subtilis is greater than 512 µg/mL; against Pseudomonas aeruginosa it was 256 µg/mL (≈ 641 µM); against Staphylococcus aureus [1], greater than 512 µg/mL; in the assay with Staphylococcus aureus [2], greater than 512 µg/mL.

Turning to `O=C1c2cccc3c(Br)ccc(c23)C(=O)N1CCCn1c[n+](Cc2ccccc2Cl)cn1.[Br-]`, the MIC came to 16 µg/mL against Escherichia coli; 8 µg/mL with Candida albicans; 32 µg/mL against Bacillus; 16 µg/mL against Micrococcus luteus; 32 µg/mL in the assay with Salmonella typhi; 32 µg/mL with Candida. The MIC amounted to 32 µg/mL in the assay with Bacillus subtilis, 16 µg/mL in the assay on Pseudomonas aeruginosa, 16 µg/mL against Staphylococcus aureus [1] and 16 µg/mL with Staphylococcus aureus [2].

Take `O=C1c2cccc3c(Br)ccc(c23)C(=O)N1CCCCn1cc[n+](Cc2ccc(F)cc2F)c1.[Br-]`: the MIC in the assay on Escherichia coli was determined as 8 µg/mL; in the assay with Candida albicans, 32 µg/mL; against Bacillus, 16 µg/mL; against Micrococcus luteus, 8 µg/mL; against Salmonella typhi, 8 µg/mL; against Candida, 16 µg/mL. Moreover, the MIC with Bacillus subtilis came to 8 µg/mL; in the assay on Pseudomonas aeruginosa, 16 µg/mL; in the assay on Staphylococcus aureus [1] it was 8 µg/mL; in the assay with Staphylococcus aureus [2], 2 µg/mL.

In the case of `O=C1c2cccc3c(Br)ccc(c23)C(=O)N1CCCn1cncn1`, the MIC against Escherichia coli is greater than 512 µg/mL; in the assay on Candida albicans, 256 µg/mL (≈ 665 µM); in the assay on Bacillus it was 256 µg/mL (≈ 665 µM); against Micrococcus luteus, greater than 512 µg/mL; in the assay on Salmonella typhi it was greater than 512 µg/mL; against Candida, 256 µg/mL (≈ 665 µM). Besides, the MIC against Bacillus subtilis was 256 µg/mL (≈ 665 µM); against Pseudomonas aeruginosa, 256 µg/mL (≈ 665 µM); in the assay on Staphylococcus aureus [1], greater than 512 µg/mL; in the assay on Staphylococcus aureus [2], greater than 512 µg/mL.

As for `O=C1c2cccc3c(Br)ccc(c23)C(=O)N1CCCn1c[n+](Cc2ccc(Cl)cc2)cn1.[Br-]`, the MIC in the assay with Escherichia coli was 8 µg/mL; in the assay with Candida albicans, 16 µg/mL; with Bacillus, 16 µg/mL; in the assay with Micrococcus luteus it was 8 µg/mL; in the assay with Salmonella typhi it was 16 µg/mL; in the assay with Candida, 16 µg/mL. Besides, the MIC against Bacillus subtilis is 16 µg/mL; in the assay with Pseudomonas aeruginosa it was 8 µg/mL; against Staphylococcus aureus [1], 32 µg/mL; against Staphylococcus aureus [2] it was 8 µg/mL.

In the case of `O=C1c2cccc3c(Br)ccc(c23)C(=O)N1CCCCCn1ccnc1`, the MIC against Escherichia coli was 32 µg/mL (≈ 77.6 µM); against Candida albicans it was 128 µg/mL (≈ 310 µM); against Bacillus, 32 µg/mL (≈ 77.6 µM); with Micrococcus luteus it was 64 µg/mL (≈ 155 µM); in the assay on Salmonella typhi it was 128 µg/mL (≈ 310 µM); in the assay on Candida, 64 µg/mL (≈ 155 µM). Also, the MIC is 64 µg/mL (≈ 155 µM) in the assay with Bacillus subtilis, 64 µg/mL (≈ 155 µM) against Pseudomonas aeruginosa, 64 µg/mL (≈ 155 µM) with Staphylococcus aureus [1] and 128 µg/mL (≈ 310 µM) in the assay with Staphylococcus aureus [2].

On to `O=C1c2cccc3c(Br)ccc(c23)C(=O)N1CCCCCn1cc[n+](Cc2ccc(F)cc2F)c1.[Br-]`, for which the MIC with Escherichia coli was determined as 16 µg/mL; against Candida albicans, 16 µg/mL; in the assay with Bacillus it was 4 µg/mL; with Micrococcus luteus it was 4 µg/mL; in the assay on Salmonella typhi, 16 µg/mL; in the assay with Candida, 16 µg/mL. In addition, the MIC in the assay on Bacillus subtilis was 16 µg/mL; in the assay with Pseudomonas aeruginosa, 16 µg/mL; against Staphylococcus aureus [1], 16 µg/mL; in the assay with Staphylococcus aureus [2], 8 µg/mL.

Turning to `O=C1c2cccc3c(Br)ccc(c23)C(=O)N1CCCCCCn1cncn1`, the MIC in the assay with Escherichia coli, in the assay on Candida albicans, against Bacillus, with Micrococcus luteus, with Salmonella typhi and in the assay on Candida was greater than 512 µg/mL each time. Further, the MIC in the assay with Bacillus subtilis, in the assay on Pseudomonas aeruginosa, against Staphylococcus aureus [1] and against Staphylococcus aureus [2] was greater than 512 µg/mL throughout.

In the case of `O=C1c2cccc3c(Br)ccc(c23)C(=O)N1CCCCCn1c[n+](Cc2ccc(F)cc2F)cn1.[Br-]`, the MIC against Escherichia coli amounted to 8 µg/mL; with Candida albicans it was 16 µg/mL; against Bacillus, 32 µg/mL; with Micrococcus luteus it was 16 µg/mL; against Salmonella typhi it was 16 µg/mL; with Candida, 16 µg/mL. The MIC was found to be 32 µg/mL against Bacillus subtilis, 2 µg/mL with Pseudomonas aeruginosa, 32 µg/mL in the assay on Staphylococcus aureus [1] and 16 µg/mL against Staphylococcus aureus [2].

Take `O=C1c2cccc3c(Br)ccc(c23)C(=O)N1CCCCCCn1cc[n+](Cc2ccc(F)cc2F)c1.[Br-]`: the MIC in the assay on Escherichia coli, against Candida albicans, against Bacillus, with Micrococcus luteus, in the assay with Salmonella typhi and in the assay with Candida was 32 µg/mL throughout. In addition, the MIC worked out at 16 µg/mL against Bacillus subtilis, 64 µg/mL in the assay with Pseudomonas aeruginosa, 16 µg/mL with Staphylococcus aureus [1] and 16 µg/mL in the assay on Staphylococcus aureus [2].

For the compound `O=C1c2cccc3c(Br)ccc(c23)C(=O)N1CCCCCCn1c[n+](Cc2ccc(F)cc2F)cn1.[Br-]`, the MIC in the assay on Escherichia coli came to 32 µg/mL; against Candida albicans it was 32 µg/mL; against Bacillus, 32 µg/mL; against Micrococcus luteus, 32 µg/mL; in the assay with Salmonella typhi, 16 µg/mL; with Candida it was 64 µg/mL. In addition, the MIC against Bacillus subtilis came out at 16 µg/mL; against Pseudomonas aeruginosa it was 8 µg/mL; in the assay on Staphylococcus aureus [1] it was 16 µg/mL; in the assay on Staphylococcus aureus [2], 32 µg/mL.

In the case of `O=C1c2cccc3c(Br)ccc(c23)C(=O)N1CCCCn1ccnc1`, the MIC is 8 µg/mL (≈ 20.1 µM) with Escherichia coli; 64 µg/mL (≈ 161 µM) against Candida albicans; 16 µg/mL (≈ 40.2 µM) against Bacillus; 16 µg/mL (≈ 40.2 µM) against Micrococcus luteus; 16 µg/mL (≈ 40.2 µM) against Salmonella typhi; 32 µg/mL (≈ 80.3 µM) against Candida. Further, the MIC against Bacillus subtilis was found to be 32 µg/mL (≈ 80.3 µM); with Pseudomonas aeruginosa it was 16 µg/mL (≈ 40.2 µM); against Staphylococcus aureus [1], 16 µg/mL (≈ 40.2 µM); against Staphylococcus aureus [2], 16 µg/mL (≈ 40.2 µM).

For `O=C1c2cccc3c(Br)ccc(c23)C(=O)N1CCCn1c[n+](Cc2ccc(Cl)cc2Cl)cn1.[Br-]`, the MIC was 4 µg/mL with Escherichia coli; 8 µg/mL in the assay on Candida albicans; 4 µg/mL against Bacillus; 8 µg/mL in the assay on Micrococcus luteus; 16 µg/mL against Salmonella typhi; 8 µg/mL with Candida. Also, the MIC was 8 µg/mL in the assay on Bacillus subtilis, 4 µg/mL against Pseudomonas aeruginosa, 16 µg/mL in the assay with Staphylococcus aureus [1] and 16 µg/mL in the assay with Staphylococcus aureus [2].

With `O=C1c2cccc3c(Br)ccc(c23)C(=O)N1CCCn1ccnc1`, the MIC against Escherichia coli amounted to 16 µg/mL (≈ 41.6 µM); against Candida albicans it was 64 µg/mL (≈ 167 µM); in the assay on Bacillus it was 16 µg/mL (≈ 41.6 µM); against Micrococcus luteus it was 16 µg/mL (≈ 41.6 µM); against Salmonella typhi it was 16 µg/mL (≈ 41.6 µM); with Candida, 64 µg/mL (≈ 167 µM). The MIC was determined as 16 µg/mL (≈ 41.6 µM) with Bacillus subtilis, 32 µg/mL (≈ 83.3 µM) against Pseudomonas aeruginosa, 16 µg/mL (≈ 41.6 µM) in the assay on Staphylococcus aureus [1] and 16 µg/mL (≈ 41.6 µM) in the assay with Staphylococcus aureus [2].

Regarding `O=C1c2cccc3c(Br)ccc(c23)C(=O)N1CCCn1c[n+](Cc2ccc(F)cc2F)cn1.[Br-]`, the MIC is 4 µg/mL with Escherichia coli; 8 µg/mL in the assay on Candida albicans; 8 µg/mL with Bacillus; 8 µg/mL in the assay on Micrococcus luteus; 4 µg/mL in the assay on Salmonella typhi; 4 µg/mL against Candida. Moreover, the MIC with Bacillus subtilis was 4 µg/mL; against Pseudomonas aeruginosa, 1 µg/mL; with Staphylococcus aureus [1] it was 16 µg/mL; against Staphylococcus aureus [2] it was 4 µg/mL.
